System: area of the skin in need of beautifying
Experiment: Topical administration of beta-ionol analog to human skin
Type: in vivo
Details: daily treatments, after two weeks
Experimental: A Beta-ionol analog, melafleur alcohol, is administered topically to a human directly onto an area of the skin in need of beautifying.

SMILES: CC1(C)CCCC2=C1CC(CO)CC2 (stereo not shown) [melafleur alcohol, 2-Naphthalenemethanol, 1,2,3,4,5,6,7,8-octahydro-8,8-dimethyl-]
- health and vitality of treated areas of the skin: increased health and vitality

Reference: patent publication US20040131648A1, “Nuclear hormone receptor compounds, products and methods employing same” (The Procter & Gamble Company, priority 2002, published 2004)
